Measurements taken from publication PMC9182007, “Statistical Methods in the Study of Protein Binding and Its Relationship to Drug Bioavailability in Breast Milk” (Molecules, 2022).
Read-outs that look alike come from different tables or passages of the source.

Key:
[1] = ref DrugBank [7], cited from earlier work
[2] = cited from earlier work
[3] = HPLC on immobilized artificial membrane column (HPLCIAM); assay type: physicochemical; details: for log k IAM: Table S5, IAM column, pH 7.4; for k IAM: Table S5, retention factor, IAM column, phosphate buffer pH 7.4/acetonitrile 80:20; for kIAM / log kIAM: Table S9, external group
[4] = biological target: T1, human serum albumin (HSA) (Homo sapiens, UniProt P02768); details: for log k HSA: pH 7.4; for k HSA: Table S5, retention factor, HSA column, pH 7.4, 25 degrees Celsius; for kHSA: Table S9, external group
plasma protein = details: ref DrugBank [7], cited from earlier work
[5] = RP TLC on non-impregnated control plates; assay type: physicochemical; details: for CRP (Rf, control RP plate): Table S4, non-impregnated RP plate, acetonitrile/acetate buffer pH 7.4/methanol 60:20:20; for CRP (Rf value from the non-impregnated RP plate, control): Table S8, external group
[6] = biological target: T2, bovine serum albumin (BSA) (Bos taurus, UniProt P02769); assay: NP TLC on plates impregnated with bovine serum albumin; assay type: binding; details: for NP (Rf, BSA-impregnated NP plate): Table S3, NP plate impregnated with 2 mg/mL BSA, pH 7.4 mobile phase; for NP (Rf value from the NP plate impregnated with 2 mg/mL BSA solution): Table S8, external group
T2 construct: purchased Sigma Aldrich

[7] = biological target: T2, bovine serum albumin (BSA); assay: RP TLC on plates impregnated with bovine serum albumin; assay type: binding; details: for RP (Rf, BSA-impregnated RP plate): Table S4, RP plate impregnated with 2 mg/mL BSA, pH 7.4 mobile phase; for RP (Rf value from the RP plate impregnated with 2 mg/mL BSA solution): Table S8, external group
[8] = NP TLC on non-impregnated control plates; assay type: physicochemical; details: for CNP (Rf, control NP plate): Table S3, non-impregnated NP plate, acetonitrile/acetate buffer pH 7.4/methanol 60:20:20; for CNP (Rf value from the non-impregnated NP plate, control): Table S8, external group
[9] = Milk-to-plasma (M/P) drug concentration ratio obtained in vivo, from literature; parameters: species or system human; details: Table S1, scale of drug penetration into milk 1-4
[10] = biological target: T1, human serum albumin (HSA); assay: in vitro; details: immobilized hsa column, pH 7.4
[11] = Table S1, milk/plasma drug concentration ratio, in vivo
[12] = Table S1, plasma protein binding given as fraction
[13] = Table S6, external group, coded 1/0
[14] = Table S6, external group (n = 38)
[15] = Table S6, external group (n = 38), given as fraction

T1 sequence (P02768 25-609): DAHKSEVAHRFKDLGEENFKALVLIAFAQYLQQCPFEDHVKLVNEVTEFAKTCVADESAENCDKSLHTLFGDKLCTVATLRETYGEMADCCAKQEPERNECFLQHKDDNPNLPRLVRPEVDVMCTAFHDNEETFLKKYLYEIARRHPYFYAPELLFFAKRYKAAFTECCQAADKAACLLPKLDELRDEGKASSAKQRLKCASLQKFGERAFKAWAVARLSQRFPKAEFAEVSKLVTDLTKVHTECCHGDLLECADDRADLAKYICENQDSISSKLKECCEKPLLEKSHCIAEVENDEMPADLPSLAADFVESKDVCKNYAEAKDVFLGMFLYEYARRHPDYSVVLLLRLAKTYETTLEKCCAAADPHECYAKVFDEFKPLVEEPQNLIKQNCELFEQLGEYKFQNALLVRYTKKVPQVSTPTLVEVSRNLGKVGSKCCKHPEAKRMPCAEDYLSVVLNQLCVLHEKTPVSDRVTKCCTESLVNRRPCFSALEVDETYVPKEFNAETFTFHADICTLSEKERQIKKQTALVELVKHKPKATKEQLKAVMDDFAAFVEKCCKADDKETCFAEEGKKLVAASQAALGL
T2 sequence (P02769 25-607): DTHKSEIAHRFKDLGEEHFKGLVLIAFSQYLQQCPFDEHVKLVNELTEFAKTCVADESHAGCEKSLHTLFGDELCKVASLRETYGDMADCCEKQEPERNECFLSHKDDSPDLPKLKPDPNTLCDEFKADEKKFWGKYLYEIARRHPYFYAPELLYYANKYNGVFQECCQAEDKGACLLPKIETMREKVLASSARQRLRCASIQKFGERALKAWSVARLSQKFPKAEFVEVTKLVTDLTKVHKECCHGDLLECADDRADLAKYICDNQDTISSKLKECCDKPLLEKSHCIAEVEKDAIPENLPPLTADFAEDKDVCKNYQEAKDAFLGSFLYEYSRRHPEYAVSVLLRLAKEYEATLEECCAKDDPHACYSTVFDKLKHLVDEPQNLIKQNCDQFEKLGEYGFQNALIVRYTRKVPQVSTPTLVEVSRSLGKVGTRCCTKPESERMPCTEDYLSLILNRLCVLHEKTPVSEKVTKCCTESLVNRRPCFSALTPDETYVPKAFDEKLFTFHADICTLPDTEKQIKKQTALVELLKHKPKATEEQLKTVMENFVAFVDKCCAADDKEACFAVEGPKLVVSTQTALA

Row | SMILES | CNS+/- ([1]; Table S1, coded 1/0) | M/P [2, 11] | log k IAM [3] | k IAM [3] | log k HSA ([4]; Table S5, HSA) | k HSA [4] | PB (plasma protein; [12]) | CRP (Rf, control RP plate) [5] | NP (Rf, BSA-impregnated NP plate) [6] | RP (Rf, BSA-impregnated RP plate) [7] | CNP (Rf, control NP plate) [8] | M/P code [9] | other results
1 | CC1(C)S[C@@H]2[C@H](NC(=O)[C@H](N)c3ccc(O)cc3)C(=O)N2[C@H]1C(=O)O [amoxilcillin] | 0 | 0.028 | -1.32 | 0.05 | -0.03 | 0.94 | 0.2 | 0.99 | 0.68 | 0.98 | 0.68 | 1 (Code 1 corresponds to drugs with an M/P value <0.40—completely safe) | 
2 | CC(C)NCC(O)COc1ccc(CCOCC2CC2)cc1 (centres unmarked) [betaxolol] | 0 | 2.75 |  |  |  | 1.59 | 0.5 | 0.27 | 0.65 | 0.25 | 0.66 | 4 (4 is M/P >1.20—dangerous) | log k HSA ([4]; human, immobilized hsa column): 0.20
3 | CC[C@H]1OC(=O)[C@H](C)[C@@H](O[C@H]2C[C@@](C)(OC)[C@@H](O)[C@H](C)O2)[C@H](C)[C@@H](O[C@@H]2O[C@H](C)C[C@H](N(C)C)[C@H]2O)[C@](C)(OC)C[C@@H](C)C(=O)[C@H](C)[C@@H](O)[C@]1(C)O [clarithromycin] | 0 | 0.25 | -1.02 | 0.10 | -0.09 | 0.82 |  | 0.83 | 0.99 | 0.78 | 0.99 | 1 (Code 1 corresponds to drugs with an M/P value <0.40—completely safe) | 
4 | CCC(C)n1ncn(-c2ccc(N3CCN(c4ccc(OCC5COC(Cn6cncn6)(c6ccc(Cl)cc6Cl)O5)cc4)CC3)cc2)c1=O (centres unmarked) [itraconazole] |  |  |  |  |  |  |  |  |  |  |  |  | CNS+/- [1, 13]: 0; M/P [2, 14]: 1.14; kIAM [3]: 6.15; log kIAM [3]: 0.79; chromatographic logD [10]: 0.98; kHSA [4]: 9.65; PB (plasma protein; [15]): 1.00; CRP (Rf value from the non-impregnated RP plate, control) [5]: 0.86; NP (Rf value from the NP plate impregnated with 2 mg/mL BSA solution) [6]: 0.97; RP (Rf value from the RP plate impregnated with 2 mg/mL BSA solution) [7]: 0.84; CNP (Rf value from the non-impregnated NP plate, control) [8]: 0.96
5 | O=C(c1ccccc1)c1ccc2n1CCC2C(=O)O (centres unmarked) [ketorolac] |  |  |  |  |  |  |  |  |  |  |  |  | CNS+/- [1, 13]: 1; M/P [2, 14]: 0.03; kIAM [3]: 2.39; log kIAM [3]: 0.38; chromatographic logD [10]: 0.98; kHSA [4]: 9.65; PB (plasma protein; [15]): 0.99; CRP (Rf value from the non-impregnated RP plate, control) [5]: 0.96; NP (Rf value from the NP plate impregnated with 2 mg/mL BSA solution) [6]: 0.91; RP (Rf value from the RP plate impregnated with 2 mg/mL BSA solution) [7]: 0.96; CNP (Rf value from the non-impregnated NP plate, control) [8]: 0.92
6 | C[C@]12C=CC(=O)C=C1CC[C@@H]1[C@@H]2[C@@H](O)C[C@@]2(C)[C@H]1CC[C@]2(O)C(=O)CO [prednizolone] |  | 0.13 | 0.45 | 2.84 | -0.28 | 0.52 | 0.9 | 0.87 | 0.94 | 0.88 | 0.94 | 1 (Code 1 corresponds to drugs with an M/P value <0.40—completely safe) | 
7 | CN[C@H]1CC[C@@H](c2ccc(Cl)c(Cl)c2)c2ccccc21 [sertraline] |  | 1.85 | 1.63 | 42.89 |  | 13.19 | 0.98 | 0.49 | 0.53 | 0.48 | 0.53 | 4 (4 is M/P >1.20—dangerous) | log k HSA ([4]; human, immobilized hsa column): 1.12
